For data set [1] the following is noted: in vivo, po.
Data set [2] in a line: hygroscopicity of the salt. Format: physicochemical.

For the compound `COc1nc2ccc(Br)cc2cc1[C@@H](c1ccccc1)[C@@](O)(CCN(C)C)c1cccc2ccccc12.O=C(O)/C=C/C(=O)O` [Present fumarate salt, (alpha S, beta R)-6-bromo-alpha-[2-(dimethylamino)ethyl]-2-methoxy-alpha-1-naphthalenyl-beta-phenyl-3-quinolineethanol (2E)-2-butenedioate (1:1)], in data set [1], the “bioavailability, fed subjects compared to fasted subjects” value was “higher bioavailability”. Besides, the hygroscopicity entry in data set [2] is “non-hygroscopic”.

The values are drawn from patent US8546428B2 (priority 2006, dated 2013).
